Measured values as given in BindingDB's records for doi:10.1016/j.ejmech.2019.07.019 (Isf College of Pharmacy, 2019).
pIC50: −log10 of the molar value.

What was measured:
[1] = Inhibition of HIV1 reverse transcriptase Y181C/K103N double mutant infected in human MT4 cells assessed as reduction in virus-induced cytopathogenicity
[2] = Inhibition of HIV1 3B Y181C mutant infected in human MT2 cells assessed as reduction in virus-induced cytopathogenicity after 3 days by BrightGlo luciferase reporter gene assay

| SMILES | pIC50 [1] | pIC50 [2] |
| --- | --- | --- |
| COP(=O)(c1cc(C)cc(/C=C/C#N)c1)c1c(C(N)=O)[nH]c2ccc(Cl)cc12 (configuration not stated) [IDX899] | 4.96 |  |
| CCCCC(O)(c1c(NC(=O)OCC)[nH]c2ccc(Br)cc12)C(F)(F)F (configuration not stated) |  | 5.71 |
